Entries after “also recorded” stand apart in the source; their conditions may differ.
Key:
[1] = tested on: PC-3 prostate cancer xenografts; experiment: tumorigenicity assay, PC-3 xenografts; type: in vivo, nude mice; settings: 10 mg/kg, i.p.; for growth of PC-3 prostate cancer xenografts: from day 5 post injection
Method: PC-3 cells (2×10^6/site) were implanted into hindquarters of nude mice. On day 5 post injection, treatment was commenced with 34-mer and 18-mer (10 mg/kg, i.p.).

[2] = tested on: Human microvascular endothelial cells; experiment: endothelial cell apoptosis assay (ApopTag / TUNEL); type: cell-based; settings: for induction of endothelial cell apoptosis: HMVEC, overnight, low serum media, with or without bFGF, FIG. 4
Method: Confluent HMVEC cells growing on coverslips were incubated overnight in low serum media (0.2% FBS in MCDB)±PEDF peptides in the presence or absence of bFGF. ApopTag Fluorescein kit (Chemicon) was used to determine apoptotic cells. […] 3-5 fields (10×) were analyzed with epi-fluorescent microscope, and cells were counted using MetaMorph software. Apoptotic (FITC positive) cells were calculated as a % of total cells stained with PI per field.
The ability of the 34-mer fragments to induce endothelial cell apoptosis was next measured (FIG. 4).
In further experiments, human microvascular endothelial cells were treated with PEDF18 (SEQ ID NO:2) and PEDF11 (SEQ ID NO:102). Apoptosis was measured after 24 hours with terminal dUTP Nick-end Labeling (TUNEL) assay. […] It is noted that one advantage of PEDF11 over longer PEDF derivatives is in that this sequence is below critical length so it can be non-immunogenic during continuous applications.

angiogenesis = experiment: directed in vivo angiogenesis assay (DIVAA), s.c. matrigel angioreactors; set-up: species or system nude mice; settings: for anti-angiogenic effect in DIVAA: bFGF 37.5 and VEGF 12.5 ng/ml, day 7
Method: FIGS. 5A and 5B show the results of a corneal angiogenesis assay. The 34 mer and 18-mer peptides were incorporated with bFGF (50 ng/pellet) into slow-release sucralfate pellets, which were surgically implanted into the cornea of anesthetized mice, 0.5-1 mm from the vascular limbus. The responses were scored on day 5 post implantation and the ingrowth of blood vessels from the cornea to the pellet was considered a positive response. The responses were scored as positive corneas of total implanted: statistical significance was evaluated with Fisher's Exact test. P<0.05 was considered significant. […] The peptides were incorporated with a mix of bFGF and VEGF (37.5 and 12.5 ng/ml, respectively) into angioreactors filled with matrigel. The reactors were implanted s.c onto the flanks of the nude mice. On day 7, The reactors were harvested and photographed (5C). Endothelial cells collected from implants by dilution/centrifugation, stained with FITC-lectin and quantified by flow cytometry (5D).
Finally, the peptides were tested in vivo, in the corneal angiogenesis and directed in vivo angiogenesis assay (DIVAA). The 34-mer derivatives were compared in vivo with parental PEDF peptide, the 34-mer. FIG. 5 A, B: Corneal angiogenesis assay: the peptides were incorporated with bFGF (50 ng/pellet) into slow-release sucralfate pellets, which were surgically implanted into the cornea of anesthetized mice, 0.5-1 mm from the vascular limbus. The responses were scored on day 5 post implantation and the ingrowth of blood vessels from the cornea to the pellet was considered a positive response. The responses were scored as positive corneas of total implanted: statistical significance was evaluated with Fisher's Exact test. P<0.05 was considered significant. […] 5C, D. DIVAA of the 34-mer and derivative peptides. The peptides were incorporated with a mix of bFGF and VEGF (37.5 and 12.5 ng/ml, respectively) into angioreactors filled with matrigel. The reactors were implanted s.c onto the flanks of the nude mice. On day 7, the reactors were harvested and photographed (5C). Endothelial cells collected from implants by dilution/centrifugation, stained with FITC-lectin and quantified by flow cytometry (5D).

[3] = tested on: Human microvascular endothelial cells; experiment: endothelial cell chemotaxis assay (bFGF-induced migration); type: cell-based; settings: for inhibition of bFGF-induced migration (chemotaxis): peptide at increasing concentrations; for inhibitor activity on bFGF-induced migration compared with native PEDF: vs rhPEDF at 20 nM
Method: The initial testing was done in the endothelial cell chemotaxis assay. Human microvascular endothelial cells to traverse gelatinized microporous membrane up the gradient of bFGF was tested in the absence and in the presence of the 14-, 18- and 23-mer peptides (FIG. 3). Human microvascular endothelial cells were plated on the lower side of gelatinized microporous membrane and allowed to adhere. The peptides (14-, 18 and 23-mer) were added at increasing concentrations to the opposite side of the gelatinized microporous membrane ([…]), alone, or in combination with basic fibroblast growth factor (bFGF, 10 ng/ml). The cells migratied to the opposite side of the membrane were counted in 10 high-powered (100×) fields. Every condition was tested in quadruplicate. bFGF-induced chemotaxis is shown (top line in each graph). Basal migration levels (0.1% bovine serum albumin) are indicated with the dotted line. Triangles (▴) show peptide alone; while squares (▪) show peptide with bFGF. The solid line (below the top line mentioned above) indicates the effect of the recombinant human PEDF (rhPEDF) at 20 nM.
Several truncated variants of P18 (SEQ ID NO:2) were generated, including an 11-mer (NFGYDLYRVRS; SEQ ID NO:102) which has the first 11 bases of P18, and an 8-mer, (NFGYDLYR; SEQ ID NO:119), which has the first 8 bases of P18. These variants were screened in endothelial cell apoptosis and chemotaxis assays, seeking those that inhibit chemotaxis and induce apoptosis with specific activity similar or better than that of P18. In particular, microvascular endothelial cells were plated in inverted modified Boyden chambers, and chemotaxis induced with bFGF (10 ng/ml). The cells migrated to bFGF were counted in 10 high-powered fields. Results for the 8-mer (SEQ ID NO:119) and the 11-mer (SEQ ID NO:102) are shown in FIGS. 12A and 12B respectively.

[4] = tested on: Mouse renal carcinoma cells (Renca, ATCC); experiment: orthotopic renal cell carcinoma xenograft model (tumor growth and metastases); type: in vivo
Method: Mouse renal carcinoma cells (Renca, ATCC) were injected under the kidney capsule (0.5×10^6/site). Animals were randomly divided into 6 groups (8 per group) and the treatment started 5 days after inoculation (intraperitoneal injections). The following treatment groups were included: P18 (SEQ ID NO:2; 10 mg/kg); P18 (60 mg/kg); Rapamycin (R, 0.5 mg/kg); R+P18 (10 mg/kg) and R+P18 (60 mg/kg). The control group was treated with scrambled peptide, YFNGRSSPSNTNTYYVDRL (SEQ ID NO:51). After 17 days of treatment both kidneys were removed. To assess tumor growth, the weight of healthy kidney was subtracted from the weight of tumor-inoculated kidney, for each animal. The difference represents the weight of the tumor.
Metastases formation was also examined in the liver and lungs of the in the control treated animals and the groups treated with P18 and scrambled peptide (FIG. 9). The % affected organs is indicated under the representative images.

corneal angiogenesis = corneal angiogenesis assay; type: in vivo, mice; settings: bFGF 50 ng/pellet; scored day 5
Method: FIGS. 5A and 5B show the results of a corneal angiogenesis assay. The 34 mer and 18-mer peptides were incorporated with bFGF (50 ng/pellet) into slow-release sucralfate pellets, which were surgically implanted into the cornea of anesthetized mice, 0.5-1 mm from the vascular limbus. The responses were scored on day 5 post implantation and the ingrowth of blood vessels from the cornea to the pellet was considered a positive response. The responses were scored as positive corneas of total implanted: statistical significance was evaluated with Fisher's Exact test. P<0.05 was considered significant. […] Endothelial cells collected from implants by dilution/centrifugation, stained with FITC-lectin and quantified by flow cytometry (5D).
Finally, the peptides were tested in vivo, in the corneal angiogenesis and directed in vivo angiogenesis assay (DIVAA). […] The responses were scored on day 5 post implantation and the ingrowth of blood vessels from the cornea to the pellet was considered a positive response. The responses were scored as positive corneas of total implanted: statistical significance was evaluated with Fisher's Exact test. […] Endothelial cells collected from implants by dilution/centrifugation, stained with FITC-lectin and quantified by flow cytometry (5D).

[5] = tested on: choroidal neovascularization; experiment: laser-induced choroidal neovascularization (CNV) mouse model; type: in vivo, mice
Method: This Example describes further characterization of P18 (PEDF18) and fragments thereof. […] Intravitreous injections of 1 μg (n=24), 10 μg (n=24) of PEDF18, or vehicle (n=21) were given at the day of laser photocoagulation-induced rupture of Bruch's membrane. Two weeks after laser induction, mice were euthanized and the area of CNV was measured. […] NV=neovascularization.

Substance	growth of PC-3 prostate cancer xenografts [1]	induction of endothelial cell apoptosis [2]	anti-angiogenic effect in DIVAA (angiogenesis)	inhibition of bFGF-induced migration (chemotaxis) ([3]; bFGF 10 ng/ml)	inhibitor activity on bFGF-induced migration compared with native PEDF [3]	further results
34-mer: 34-mer PEDF peptide (amino acids 44-77 at the N-terminus), parental PEDF peptide (DPFFKVPVNKLAAAVSNFGYDLYRVRSSMSPTTN) [reference compound]	only marginal effect					
AAAVSNFGYDLYRVRSSTSPTTN [23-mer]		failed to induced apoptosis	failed to inhibit angiogenesis	comparable to PEDF at low concentrations and lost its inhibitory activity at higher doses		
DLYRVRSSTSPTTN [14-mer]		very weak induction of apoptosis		inhibited bFGF-induced migration in a dose-dependent manner	superior to that of native PEDF	
NFGYDLYRVRS [PEDF11]				dose-dependent inhibition		concentration causing EC apoptosis [2]: 10 to 100 nM; concentration at which chemotaxis is inhibited ([3]; bFGF 10 ng/ml, FIG. 12B): 1 to 10 nM; efficacy compared with P18 ([3]; chemotaxis inhibition and EC apoptosis, vs P18 (FIG. 3)): comparable to that of P18
NFGYDLYRVRSSTSPTTN [18-mer]	significantly inhibited the growth	more potent than the parental PEDF and as potent as the 34-mer	showed the best anti-angiogenic characteristics	inhibited bFGF-induced migration in a dose-dependent manner	superior to that of native PEDF	tumor weight ([4]; P18 alone, i.p., 17 days of treatment, vs scrambled peptide): significant (P<0.0003) decrease in tumor weight; liver metastases ([4]; P18 treatment, FIG. 9): eradicated liver metastases; tumor volume ([1]; FIG. 6): substantial reduction in tumor volume; blocking of VEGF-induced angiogenesis (angiogenesis; in vitro and in vivo in the subcutaneous matrigel plug assays): effectively blocks VEGF-induced angiogenesis; activity in blocking angiogenesis compared with the 34-mer (angiogenesis; mouse, in vivo): more active in blocking angiogenesis than the original 34-mer; anti-angiogenic effect in corneal angiogenesis assay (corneal angiogenesis): showed the best anti-angiogenic characteristics; area of CNV at laser sites ([5]; intravitreous 1 μg or 10 μg, two weeks after laser induction, vs vehicle): significantly smaller areas of neovascularization; choroidal neovascularization (overall effect) ([5]; mouse, laser-induced, listed as PEDF18): suppresses choroidal neovascularization; also recorded: effectively alleviated laser-induced choroidal neovascularization (CNV)
